# Assay results from PubChem BioAssay AID330 (DTP/NCI, 2004).
# Where “and” joins values, the source holds several entries; their conditions need not be identical. Identical values can stand only once. Toxic doses and inconclusive results are not listed.
# Tested on: P388 leukemia ip, CD2F1 mice, survival T/C
# Assay: NCI In Vivo Anticancer Drug Screen. Data for tumor model P388 Leukemia (intraperitoneal) in CD2F1 (CDF1) mice
# Conditions: endpoint: median survival time, higher = longer survival
# Procedure, shortened: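 Mice carrying the transplanted tumor received test compound or vehicle. Survival was recorded in each group, and the value is the treated-group measurement divided by that of the vehicle-treated control group.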
# [1] = dose: 50.0 mg/kg/injection, schedule: Q04DX003 (ip), vehicle: Klucel (hydroxypropylcellulose) (HPC)
# [2] = dose: 100.0 mg/kg/injection, schedule: Q04DX003 (ip), vehicle: Klucel (hydroxypropylcellulose) (HPC)
# [3] = dose: 200.0 mg/kg/injection, schedule: Q04DX003 (ip), vehicle: Klucel (hydroxypropylcellulose) (HPC)
# [4] = dose: 50.0 mg/kg/injection, schedule: Q04DX003 (ip), vehicle: saline
# [5] = dose: 100.0 mg/kg/injection, schedule: Q04DX003 (ip), vehicle: saline
# [6] = dose: 60.0 mg/kg/injection, schedule: Q01DX005 (ip), vehicle: saline with Tween-80
# [7] = dose: 120.0 mg/kg/injection, schedule: Q01DX005 (ip), vehicle: saline with Tween-80
# [8] = dose: 240.0 mg/kg/injection, schedule: Q01DX005 (ip), vehicle: saline with Tween-80
smiles,measurement,setting,value
COc1ccc(C2=C(Cl)C(=O)N(c3ccccc3Cl)C(=O)C2(Cl)Cl)cc1,T/C,"dose: 100.0 mg/kg/injection, schedule: Q04DX002 (ip), vehicle: Klucel (hydroxypropylcellulose) (HPC)",105 % of control
same,T/C,"dose: 200.0 mg/kg/injection, schedule: Q04DX002 (ip), vehicle: Klucel (hydroxypropylcellulose) (HPC)",112 % of control
same,T/C,"dose: 400.0 mg/kg/injection, schedule: Q04DX002 (ip), vehicle: Klucel (hydroxypropylcellulose) (HPC)",113 % of control
CS/C(N)=N/NC(=O)CCC(=O)Nc1cc(C)ccc1C,T/C,"dose: 100.0 mg/kg/injection, schedule: Q04DX002 (ip), vehicle: saline with Tween-80",102 % of control
same,T/C,"dose: 200.0 mg/kg/injection, schedule: Q04DX002 (ip), vehicle: saline with Tween-80",101 % of control
same,T/C,"dose: 400.0 mg/kg/injection, schedule: Q04DX002 (ip), vehicle: saline with Tween-80",90 % of control
CC[C@@H]1C[C@@H]2CN3CCc4c([nH]c5cc(Cc6ccc(OC)c(OC)c6)c(OC)cc45)C(C(=O)OC)(C2)C13,T/C,"dose: 0.5 mg/kg/injection, schedule: Q01DX009 (ip), vehicle: Klucel (hydroxypropylcellulose) (HPC)",96 % of control
same,T/C,"dose: 1.0 mg/kg/injection, schedule: Q01DX009 (ip), vehicle: Klucel (hydroxypropylcellulose) (HPC)",107 % of control
same,T/C,"dose: 2.0 mg/kg/injection, schedule: Q01DX009 (ip), vehicle: Klucel (hydroxypropylcellulose) (HPC)",111 % of control
same,T/C,"dose: 4.0 mg/kg/injection, schedule: Q01DX009 (ip), vehicle: Klucel (hydroxypropylcellulose) (HPC)",107 % of control and 97 % of control
same,T/C,"dose: 8.0 mg/kg/injection, schedule: Q01DX009 (ip), vehicle: Klucel (hydroxypropylcellulose) (HPC)",101 % of control
same,T/C,"dose: 16.0 mg/kg/injection, schedule: Q01DX009 (ip), vehicle: Klucel (hydroxypropylcellulose) (HPC)",98 % of control
CS(=O)(=O)OC1C(COC(=O)c2ccccc2)OC2C1Oc1nc(=O)ccn12 (centres undefined),T/C,"dose: 50.0 mg/kg/injection, schedule: Q01DX005 (ip), vehicle: Klucel (hydroxypropylcellulose) (HPC)",98 % of control
same,T/C,"dose: 100.0 mg/kg/injection, schedule: Q01DX005 (ip), vehicle: Klucel (hydroxypropylcellulose) (HPC)",99 % of control
same,T/C,"dose: 200.0 mg/kg/injection, schedule: Q01DX005 (ip), vehicle: Klucel (hydroxypropylcellulose) (HPC)",101 % of control
O=C1CCCC2=C1C(c1ccccc1)/C(=N/O)O2 (centres undefined),T/C,[1],97 % of control
same,T/C,[2],101 % of control
same,T/C,[3],100 % of control and 90 % of control
COC(=O)C1(C)OS(=O)(=O)c2ccccc21 (centres undefined),T/C,"dose: 50.0 mg/kg/injection, schedule: Q01DX009 (ip), vehicle: saline with Tween-80",101 % of control
same,T/C,"dose: 100.0 mg/kg/injection, schedule: Q01DX009 (ip), vehicle: saline with Tween-80",101 % of control
same,T/C,"dose: 200.0 mg/kg/injection, schedule: Q01DX009 (ip), vehicle: saline with Tween-80",104 % of control
N=C(N)SCC[n+]1cccc2cccc(O)c21,T/C,"dose: 100.0 mg/kg/injection, schedule: Q04DX002 (ip), vehicle: saline",98 % of control
same,T/C,"dose: 200.0 mg/kg/injection, schedule: Q04DX002 (ip), vehicle: saline",100 % of control
COC(=O)c1c(C(=O)Cc2cc3c(cc2CCN(C)C)OCO3)ccc(OC)c1OC,T/C,"dose: 12.5 mg/kg/injection, schedule: Q01DX001 (ip), vehicle: saline + alcohol",99 % of control
same,T/C,"dose: 25.0 mg/kg/injection, schedule: Q01DX001 (ip), vehicle: saline + alcohol",100 % of control
same,T/C,"dose: 50.0 mg/kg/injection, schedule: Q01DX001 (ip), vehicle: saline + alcohol",101 % of control
O=C1NC(c2ccccc2)(c2ccccc2)C(=O)N1CCBr,T/C,"dose: 12.5 mg/kg/injection, schedule: Q04DX003 (ip), vehicle: saline",106 % of control
same,T/C,"dose: 25.0 mg/kg/injection, schedule: Q04DX003 (ip), vehicle: Klucel (hydroxypropylcellulose) (HPC)",96 % of control
same,T/C,"dose: 25.0 mg/kg/injection, schedule: Q04DX003 (ip), vehicle: saline",100 % of control
same,T/C,[1],105 % of control
same,T/C,[4],105 % of control
same,T/C,[2],100 % of control and 107 % of control
same,T/C,[5],104 % of control
same,T/C,[3],100 % of control and 96 % of control
same,T/C,"dose: 400.0 mg/kg/injection, schedule: Q04DX003 (ip), vehicle: Klucel (hydroxypropylcellulose) (HPC)",98 % of control and 99 % of control
NCC(N)Cn1ccnc1 (centres undefined),T/C,[4],93 % of control
same,T/C,[5],94 % of control
same,T/C,"dose: 200.0 mg/kg/injection, schedule: Q04DX003 (ip), vehicle: saline",95 % of control
CCOc1nc(C)c(C)c(-c2ccc(OC)c(OC)c2OCc2ccccc2)c1C#N,T/C,"dose: 0.05 mg/kg/injection, schedule: Q01DX009 (ip), vehicle: other",117 % of control
same,T/C,"dose: 0.1 mg/kg/injection, schedule: Q01DX009 (ip), vehicle: other",96 % of control
same,T/C,"dose: 0.2 mg/kg/injection, schedule: Q01DX009 (ip), vehicle: other",101 % of control
same,T/C,"dose: 0.4 mg/kg/injection, schedule: Q01DX009 (ip), vehicle: other",100 % of control and 107 % of control
same,T/C,"dose: 0.8 mg/kg/injection, schedule: Q01DX009 (ip), vehicle: other",110 % of control
same,T/C,"dose: 1.6 mg/kg/injection, schedule: Q01DX009 (ip), vehicle: other",117 % of control
same,T/C,"dose: 3.2 mg/kg/injection, schedule: Q01DX009 (ip), vehicle: other",115 % of control
same,T/C,"dose: 6.4 mg/kg/injection, schedule: Q01DX009 (ip), vehicle: DMSO",103 % of control
same,T/C,"dose: 6.4 mg/kg/injection, schedule: Q01DX009 (ip), vehicle: other",110 % of control
same,T/C,"dose: 12.8 mg/kg/injection, schedule: Q01DX009 (ip), vehicle: DMSO",94 % of control
same,T/C,"dose: 25.6 mg/kg/injection, schedule: Q01DX009 (ip), vehicle: DMSO",94 % of control
same,T/C,"dose: 51.2 mg/kg/injection, schedule: Q01DX009 (ip), vehicle: DMSO",97 % of control
same,T/C,"dose: 100.0 mg/kg/injection, schedule: Q01DX009 (ip), vehicle: other",104 % of control
same,T/C,"dose: 102.0 mg/kg/injection, schedule: Q01DX009 (ip), vehicle: DMSO",94 % of control
same,T/C,"dose: 200.0 mg/kg/injection, schedule: Q01DX009 (ip), vehicle: other",115 % of control
same,T/C,"dose: 400.0 mg/kg/injection, schedule: Q01DX009 (ip), vehicle: other",100 % of control
O=C1[C@@H]2CCC[C@@H]2[C@H]2CCC[C@@H]12,T/C,"dose: 100.0 mg/kg/injection, schedule: Q01DX001 (ip), vehicle: saline with Tween-80",95 % of control
same,T/C,"dose: 200.0 mg/kg/injection, schedule: Q01DX001 (ip), vehicle: saline with Tween-80",102 % of control
same,T/C,"dose: 400.0 mg/kg/injection, schedule: Q01DX001 (ip), vehicle: saline with Tween-80",89 % of control
O=NN(C(=O)NC1CCC(C(=O)O)CC1)C1CCC(C(=O)O)CC1 (centres undefined),T/C,"dose: 25.0 mg/kg/injection, schedule: Q01DX001 (ip), vehicle: distilled water + Tween-80",93 % of control
same,T/C,"dose: 50.0 mg/kg/injection, schedule: Q01DX001 (ip), vehicle: distilled water + Tween-80",93 % of control
same,T/C,"dose: 100.0 mg/kg/injection, schedule: Q01DX001 (ip), vehicle: distilled water + Tween-80",93 % of control
same,T/C,"dose: 200.0 mg/kg/injection, schedule: Q01DX001 (ip), vehicle: distilled water + Tween-80",101 % of control
CC1c2ccccc2-c2ccccc2N1C(=O)c1cccc(C(=O)N2c3ccccc3-c3ccccc3C2C)n1 (centres undefined),T/C,[6],93 % of control
same,T/C,[7],98 % of control
same,T/C,[8],90 % of control
O=[N+]([O-])/C=C/c1cc2ccc3ccccc3c2[nH]1,T/C,[6],94 % of control
same,T/C,[7],89 % of control
same,T/C,[8],102 % of control
Nc1n[n+](-c2ccc(Cl)cc2)no1,T/C,"dose: 3.13 mg/kg/injection, schedule: Q01DX009 (ip), vehicle: water",108 % of control
same,T/C,"dose: 6.25 mg/kg/injection, schedule: Q01DX009 (ip), vehicle: water",102 % of control and 124 % of control
same,T/C,"dose: 12.5 mg/kg/injection, schedule: Q01DX009 (ip), vehicle: water",124 % of control
same,T/C,"dose: 25.0 mg/kg/injection, schedule: Q01DX009 (ip), vehicle: water",155 % of control
CN1C(=O)C2(CC2C(=O)c2ccc(Cl)cc2)c2ccccc21 (centres undefined),T/C,"dose: 2.5 mg/kg/injection, schedule: Q04DX002 (ip), vehicle: saline with Tween-80",108 % of control
same,T/C,"dose: 5.0 mg/kg/injection, schedule: Q04DX002 (ip), vehicle: saline with Tween-80",100 % of control
same,T/C,"dose: 10.0 mg/kg/injection, schedule: Q04DX002 (ip), vehicle: saline with Tween-80",99 % of control
